Measured values taken from ChEMBL document CHEMBL3259577, “Antagonists of the kappa opioid receptor” (Bioorg Med Chem Lett, 2014).
Peptide text beside a SMILES is read from it.

Legend:
[1] = target: T1, Kappa-type opioid receptor (Homo sapiens, UniProt P41145); experiment: Inhibition of kappa opioid receptor (unknown origin) using dynorphin A by DiscoveryRx b-arrestin PathHunter assay
[2] = target: T1, Kappa-type opioid receptor; experiment: Inhibition of kappa opioid receptor (unknown origin) using dynorphin A by high content imaging beta-arrestin translocation assay
[3] = target: T2, Delta-type opioid receptor (Homo sapiens, UniProt P41143); experiment: Inhibition of delta opioid receptor (unknown origin) using SNC-80 by high content imaging beta-arrestin translocation assay
T2 sequence (P41143 whole entry): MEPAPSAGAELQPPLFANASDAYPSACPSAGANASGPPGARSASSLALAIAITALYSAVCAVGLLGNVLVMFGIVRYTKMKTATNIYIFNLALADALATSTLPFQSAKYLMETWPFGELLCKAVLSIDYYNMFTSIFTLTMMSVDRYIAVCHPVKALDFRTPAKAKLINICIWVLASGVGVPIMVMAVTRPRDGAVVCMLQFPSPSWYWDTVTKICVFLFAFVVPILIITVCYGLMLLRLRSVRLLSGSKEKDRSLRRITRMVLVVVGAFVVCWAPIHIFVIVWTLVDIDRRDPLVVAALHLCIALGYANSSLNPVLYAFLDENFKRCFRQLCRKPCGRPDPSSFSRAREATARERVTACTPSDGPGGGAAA

[4] = target: Muscarinic acetylcholine receptor M2 (Homo sapiens, UniProt P08172); experiment: Binding affinity to muscarinic M2 receptor (unknown origin)
Muscarinic acetylcholine receptor M2, sequence (P08172 whole entry): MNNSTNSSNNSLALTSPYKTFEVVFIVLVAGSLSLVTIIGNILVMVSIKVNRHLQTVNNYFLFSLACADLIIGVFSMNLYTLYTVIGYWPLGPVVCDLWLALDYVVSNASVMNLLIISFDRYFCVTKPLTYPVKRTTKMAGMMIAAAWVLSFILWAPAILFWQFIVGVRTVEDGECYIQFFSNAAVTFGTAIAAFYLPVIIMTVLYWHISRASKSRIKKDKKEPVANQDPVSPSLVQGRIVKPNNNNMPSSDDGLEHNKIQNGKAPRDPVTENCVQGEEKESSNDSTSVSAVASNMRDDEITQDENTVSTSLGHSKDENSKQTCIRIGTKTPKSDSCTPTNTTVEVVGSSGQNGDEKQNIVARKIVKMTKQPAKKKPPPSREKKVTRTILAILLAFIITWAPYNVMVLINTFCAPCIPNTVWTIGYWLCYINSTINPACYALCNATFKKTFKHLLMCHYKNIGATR

[5] = target: Muscarinic acetylcholine receptor M3 (Homo sapiens, UniProt P20309); experiment: Binding affinity to muscarinic M3 receptor (unknown origin)
Muscarinic acetylcholine receptor M3, sequence (P20309 whole entry): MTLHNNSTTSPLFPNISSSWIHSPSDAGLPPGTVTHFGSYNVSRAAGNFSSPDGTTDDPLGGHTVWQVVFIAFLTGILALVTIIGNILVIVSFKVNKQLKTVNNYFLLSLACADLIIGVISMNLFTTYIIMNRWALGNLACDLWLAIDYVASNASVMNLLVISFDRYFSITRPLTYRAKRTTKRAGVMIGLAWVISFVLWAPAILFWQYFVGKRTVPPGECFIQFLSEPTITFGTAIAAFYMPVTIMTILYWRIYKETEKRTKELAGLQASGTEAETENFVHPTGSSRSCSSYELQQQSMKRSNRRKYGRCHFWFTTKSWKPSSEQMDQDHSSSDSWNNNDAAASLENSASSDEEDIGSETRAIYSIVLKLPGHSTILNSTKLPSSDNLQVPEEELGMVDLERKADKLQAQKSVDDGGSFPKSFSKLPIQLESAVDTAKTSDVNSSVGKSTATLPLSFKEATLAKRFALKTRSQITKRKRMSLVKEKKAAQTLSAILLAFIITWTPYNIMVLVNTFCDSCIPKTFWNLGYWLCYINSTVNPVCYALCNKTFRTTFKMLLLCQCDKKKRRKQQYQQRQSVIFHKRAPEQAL

[6] = target: Muscarinic acetylcholine receptor M4 (Homo sapiens, UniProt P08173); experiment: Binding affinity to muscarinic M4 receptor (unknown origin)
Muscarinic acetylcholine receptor M4, sequence (P08173 whole entry): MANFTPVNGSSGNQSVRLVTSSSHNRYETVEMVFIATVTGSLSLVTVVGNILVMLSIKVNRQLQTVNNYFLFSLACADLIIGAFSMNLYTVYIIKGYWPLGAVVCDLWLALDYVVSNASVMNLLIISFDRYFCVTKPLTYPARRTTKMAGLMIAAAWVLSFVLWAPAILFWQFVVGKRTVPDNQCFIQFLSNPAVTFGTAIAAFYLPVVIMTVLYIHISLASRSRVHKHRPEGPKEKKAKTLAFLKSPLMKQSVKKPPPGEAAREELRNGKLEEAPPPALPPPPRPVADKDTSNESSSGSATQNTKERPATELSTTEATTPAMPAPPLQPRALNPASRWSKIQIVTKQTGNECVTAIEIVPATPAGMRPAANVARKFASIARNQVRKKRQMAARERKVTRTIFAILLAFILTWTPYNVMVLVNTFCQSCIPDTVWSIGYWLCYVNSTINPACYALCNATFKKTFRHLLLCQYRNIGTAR

[7] = target: Sigma non-opioid intracellular receptor 1 (Homo sapiens, UniProt Q99720); experiment: Binding affinity to sigma-1 receptor (unknown origin)
Sigma non-opioid intracellular receptor 1, sequence (Q99720 whole entry): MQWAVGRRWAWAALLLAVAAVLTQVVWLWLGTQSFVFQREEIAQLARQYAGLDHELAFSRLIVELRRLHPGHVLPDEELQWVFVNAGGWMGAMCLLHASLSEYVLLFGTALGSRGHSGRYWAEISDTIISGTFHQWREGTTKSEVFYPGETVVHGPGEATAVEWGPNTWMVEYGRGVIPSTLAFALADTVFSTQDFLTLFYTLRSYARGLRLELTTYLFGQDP

[8] = target: T3, Mu-type opioid receptor (Homo sapiens, UniProt P35372); experiment: Agonist activity at human cloned mu opioid receptor expressed in CHO cells assessed as stimulation of [35S]-GTP[gammaS] binding; assay type: cell-based
T3 sequence (P35372 whole entry): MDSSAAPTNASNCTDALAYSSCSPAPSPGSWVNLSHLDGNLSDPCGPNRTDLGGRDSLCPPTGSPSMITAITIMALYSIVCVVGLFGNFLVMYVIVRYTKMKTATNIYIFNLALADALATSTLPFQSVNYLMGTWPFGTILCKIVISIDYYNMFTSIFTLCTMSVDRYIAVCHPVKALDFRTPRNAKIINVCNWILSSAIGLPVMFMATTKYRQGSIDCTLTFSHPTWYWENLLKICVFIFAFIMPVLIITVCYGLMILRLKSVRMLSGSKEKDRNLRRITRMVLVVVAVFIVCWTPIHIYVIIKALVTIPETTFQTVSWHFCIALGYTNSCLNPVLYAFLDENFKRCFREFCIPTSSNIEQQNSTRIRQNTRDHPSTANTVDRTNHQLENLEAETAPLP

[9] = target: T3, Mu-type opioid receptor; experiment: Antagonist activity at human cloned mu opioid receptor expressed in CHO cells assessed as inhibition of DAMGO-stimulated [35S]-GTP[gammaS] binding; assay type: cell-based
[10] = target: T1, Kappa-type opioid receptor; experiment: Antagonist activity at human cloned kappa opioid receptor expressed in CHO cells assessed as inhibition of Dynorphin A-stimulated [35S]-GTP[gammaS] binding; assay type: functional, cell-based
[11] = species: Mus musculus; experiment: Antinociceptive activity in mouse assessed as reversal of U50488-induced withdrawl latencies; assay type: functional
[12] = target: T1, Kappa-type opioid receptor; experiment: Agonist activity at human cloned kappa opioid receptor expressed in CHO cells assessed as stimulation of [35S]-GTP[gammaS] binding; assay type: functional, cell-based
[13] = target: T2, Delta-type opioid receptor; experiment: Agonist activity at human cloned delta opioid receptor expressed in CHO cells assessed as stimulation of [35S]-GTP[gammaS] binding; assay type: functional, cell-based
[14] = target: T3, Mu-type opioid receptor; experiment: Inhibition of mu opioid receptor (unknown origin) using DAMGO by high content imaging beta-arrestin translocation assay
[15] = target: 5-hydroxytryptamine receptor 2B (Homo sapiens, UniProt P41595); experiment: Binding affinity to 5-HT2B receptor (unknown origin)
5-hydroxytryptamine receptor 2B, sequence (P41595 whole entry): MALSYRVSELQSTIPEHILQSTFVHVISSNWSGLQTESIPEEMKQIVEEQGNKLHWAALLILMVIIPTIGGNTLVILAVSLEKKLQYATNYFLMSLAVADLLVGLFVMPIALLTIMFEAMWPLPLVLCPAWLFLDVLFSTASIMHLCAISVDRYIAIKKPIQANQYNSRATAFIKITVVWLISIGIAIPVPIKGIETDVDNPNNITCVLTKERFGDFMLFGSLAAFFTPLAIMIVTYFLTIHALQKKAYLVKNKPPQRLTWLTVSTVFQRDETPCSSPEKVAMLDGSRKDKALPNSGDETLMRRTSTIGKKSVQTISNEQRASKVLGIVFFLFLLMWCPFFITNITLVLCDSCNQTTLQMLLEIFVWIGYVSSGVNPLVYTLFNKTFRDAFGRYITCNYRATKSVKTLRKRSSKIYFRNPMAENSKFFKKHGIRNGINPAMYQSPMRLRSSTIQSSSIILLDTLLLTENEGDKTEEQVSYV

[16] = target: Histamine H1 receptor (Homo sapiens, UniProt P35367); experiment: Binding affinity to histamine H1 receptor (unknown origin)
Histamine H1 receptor, sequence (P35367 whole entry): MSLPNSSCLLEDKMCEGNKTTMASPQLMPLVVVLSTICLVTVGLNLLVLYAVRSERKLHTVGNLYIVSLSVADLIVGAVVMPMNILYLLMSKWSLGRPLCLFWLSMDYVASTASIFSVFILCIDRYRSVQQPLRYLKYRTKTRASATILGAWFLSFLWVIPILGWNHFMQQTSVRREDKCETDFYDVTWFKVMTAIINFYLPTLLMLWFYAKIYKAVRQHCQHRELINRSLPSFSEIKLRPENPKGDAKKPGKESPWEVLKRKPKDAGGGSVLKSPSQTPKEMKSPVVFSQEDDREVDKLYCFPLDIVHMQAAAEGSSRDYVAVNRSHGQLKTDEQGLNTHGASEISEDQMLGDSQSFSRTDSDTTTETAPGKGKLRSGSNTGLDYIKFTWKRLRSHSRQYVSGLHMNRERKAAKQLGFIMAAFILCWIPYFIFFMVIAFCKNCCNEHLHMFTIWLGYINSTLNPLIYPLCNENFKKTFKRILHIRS

[17] = target: Muscarinic acetylcholine receptor M1 (Homo sapiens, UniProt P11229); experiment: Binding affinity to muscarinic M1 receptor (unknown origin)
Muscarinic acetylcholine receptor M1, sequence (P11229 whole entry): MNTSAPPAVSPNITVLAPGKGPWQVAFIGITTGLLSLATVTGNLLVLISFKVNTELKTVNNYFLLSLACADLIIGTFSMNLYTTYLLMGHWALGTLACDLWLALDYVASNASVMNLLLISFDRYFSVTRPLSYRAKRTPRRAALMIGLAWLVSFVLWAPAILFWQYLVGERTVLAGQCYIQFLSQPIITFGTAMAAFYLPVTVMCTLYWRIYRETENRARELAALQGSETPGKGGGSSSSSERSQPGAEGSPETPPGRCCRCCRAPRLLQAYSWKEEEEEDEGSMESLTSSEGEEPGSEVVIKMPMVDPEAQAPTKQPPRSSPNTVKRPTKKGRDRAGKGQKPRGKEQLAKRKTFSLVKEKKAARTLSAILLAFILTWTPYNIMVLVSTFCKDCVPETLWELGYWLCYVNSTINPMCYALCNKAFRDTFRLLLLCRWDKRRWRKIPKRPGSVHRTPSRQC

[18] = target: Sodium-dependent noradrenaline transporter (Homo sapiens, UniProt P23975); experiment: Binding affinity to NET (unknown origin)
[19] = Drug metabolism in human liver microsomes assessed as compound remaining after 1 hr; assay type: ADME; conditions: read-out: Drug metabolism
[20] = target: Alpha-2C adrenergic receptor (Homo sapiens, UniProt P18825); experiment: Binding affinity to adrenergic alpha2C receptor (unknown origin)
Alpha-2C adrenergic receptor, sequence (P18825 whole entry): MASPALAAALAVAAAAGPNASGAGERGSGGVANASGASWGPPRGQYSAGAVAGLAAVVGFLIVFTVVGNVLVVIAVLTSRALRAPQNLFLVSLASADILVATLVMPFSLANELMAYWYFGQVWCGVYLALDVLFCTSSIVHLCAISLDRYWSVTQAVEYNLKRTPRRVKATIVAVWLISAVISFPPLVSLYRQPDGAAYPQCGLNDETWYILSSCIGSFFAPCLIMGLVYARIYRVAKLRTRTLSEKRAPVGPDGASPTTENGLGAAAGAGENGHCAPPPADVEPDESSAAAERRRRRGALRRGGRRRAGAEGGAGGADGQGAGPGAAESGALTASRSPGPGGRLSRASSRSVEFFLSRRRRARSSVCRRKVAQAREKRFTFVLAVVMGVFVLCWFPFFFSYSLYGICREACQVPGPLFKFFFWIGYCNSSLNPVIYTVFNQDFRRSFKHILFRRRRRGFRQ

[21] = species: Cavia porcellus; experiment: (§1) Antagonist activity at delta opioid receptor in guinea pig caudate assessed as inhibition of SNC-80-stimulated [35S]-GTP[gammaS] binding
[22] = tested on: CHO; experiment: Selectivity ratio of Ki for mu opioid receptor (unknown origin) expressed in CHO cell membranes to Ki for kappa opioid receptor (unknown origin) expressed in CHO cell membranes; assay type: cell-based; conditions: Homo sapiens
[23] = tested on: CHO; experiment: Selectivity ratio of Ki for delta opioid receptor (unknown origin) expressed in CHO cell membranes to Ki for kappa opioid receptor (unknown origin) expressed in CHO cell membranes; assay type: cell-based; conditions: Homo sapiens
[24] = target: T1, Kappa-type opioid receptor; experiment: Antagonist activity at human cloned kappa opioid receptor expressed in CHO cells assessed as inhibition of U50488-stimulated [35S]-GTP[gammaS] binding; assay type: functional, cell-based
[25] = target: Mu-type opioid receptor (Cavia porcellus, UniProt P97266); experiment: (§2) Antagonist activity at mu opioid receptor in guinea pig caudate assessed as inhibition of DAMGO-stimulated [35S]-GTP[gammaS] binding; assay type: functional
Mu-type opioid receptor (Cavia porcellus, UniProt P97266), sequence (P97266 whole entry): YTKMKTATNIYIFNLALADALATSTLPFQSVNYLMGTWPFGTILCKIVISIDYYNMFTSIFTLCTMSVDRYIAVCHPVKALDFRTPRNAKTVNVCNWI

[26] = as §1; parameters: species or system Cavia porcellus
[27] = target: Mu-type opioid receptor (Cavia porcellus) (UniProt P97266); experiment: as §2; assay type: functional
Mu-type opioid receptor (Cavia porcellus), sequence (P97266 whole entry): as above

[28] = target: Kappa-type opioid receptor (Cavia porcellus) (UniProt P41144)

T1 sequence (P41145 whole entry): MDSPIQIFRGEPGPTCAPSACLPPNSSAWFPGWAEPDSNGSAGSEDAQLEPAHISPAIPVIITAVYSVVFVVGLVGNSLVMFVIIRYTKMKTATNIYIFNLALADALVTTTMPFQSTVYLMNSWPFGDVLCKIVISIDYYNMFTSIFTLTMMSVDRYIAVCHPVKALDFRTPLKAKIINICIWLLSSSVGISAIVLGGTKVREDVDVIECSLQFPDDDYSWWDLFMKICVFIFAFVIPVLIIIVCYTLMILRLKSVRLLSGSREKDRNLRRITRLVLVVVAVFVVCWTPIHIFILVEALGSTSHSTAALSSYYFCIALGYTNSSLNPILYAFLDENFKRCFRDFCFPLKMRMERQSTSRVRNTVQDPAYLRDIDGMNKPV

Question: Which IC50 [1] does the source give for `Cc1ccc(S(=O)(=O)NCc2ccc(C(=O)NCCN(Cc3ccccc3)C(C)(C)C)cc2)cc1` here?
Answer: 0.06 µM

Question: And the IC50 [2]?
Answer: 0.03 µM

Question: And the IC50 [3]?
Answer: > 32 µM

Question: And the Ki [4]?
Answer: < 1 µM

Question: And the Ki [5]?
Answer: < 1 µM

Question: What about the Ki [6] of the same compound?
Answer: < 1 µM

Question: And the Ki [7]?
Answer: < 1 µM

Question: Which Activity [8] does the source give for `CO[C@H]1Cc2ccc(O)cc2C(C)(C)[C@@H]1N` here?
Answer: 31.6%

Question: What about the EC50 [8] of the same compound?
Answer: 0.234 µM

Question: Which IC50 [3] does the source give for `CCN(CCNC(=O)c1ccc(CNS(=O)(=O)c2ccc(C)cc2)cc1)Cc1ccccc1` here?
Answer: > 32 µM

Question: Which results are given for `C[C@@H]1NC(=O)[C@H](Cc2c[nH]c3ccccc23)NC(=O)[C@H](Cc2ccccc2)NC(=O)[C@@H]2CCCN2C1=O` (cyclo(APFW))?
Answer: Ke [9]: 7.3 nM; Kb [10]: 0.0026 µM; Time [11]: <18 h

Question: With `C[C@@H]1NC(=O)[C@@H]2CCCN2C(=O)[C@H](Cc2ccccc2)NC(=O)[C@H](Cc2c[nH]c3ccccc23)NC1=O` (cyclo(AWFP)) as the compound, how does the Time [11] read?
Answer: <18 h

Question: For `CC1CN(CCCc2ccccc2)C2C[C@H](NCC3CC3)CC1(c1cccc(O)c1)C2` (stereo partly specified), which EC50 [12] is on record?
Answer: > 5 µM

Question: What about the EC50 [8] of the same compound?
Answer: 130 µM

Question: What about the EC50 [13] of the same compound?
Answer: > 5 µM

Question: With `O=C1N[C@@H](Cc2ccccc2)C(=O)N2CCC[C@H]2C(=O)N[C@@H](Cc2ccccc2)C(=O)N[C@H]1Cc1c[nH]c2ccccc12` (cyclo(FPFW)) as the compound, how does the Kb [9] read?
Answer: 0.0102 µM

Question: And the Kb [10]?
Answer: 0.0652 µM

Question: And the Time [11]?
Answer: >24 h

Question: With `Cc1ccc(S(=O)(=O)NCc2ccc(C(=O)NCCN(Cc3ccccc3)C(C)C)cc2)cc1` as the compound, how does the IC50 [14] read?
Answer: > 24 µM

Question: And the IC50 [3]?
Answer: > 32 µM

Question: And the Ki [15]?
Answer: < 1 µM

Question: What about the Ki [16] of the same compound?
Answer: < 1 µM

Question: What about the Ki [17] of the same compound?
Answer: < 1 µM

Question: What about the Ki [4] of the same compound?
Answer: < 1 µM

Question: What about the Ki [5] of the same compound?
Answer: < 1 µM

Question: And the Ki [6]?
Answer: < 1 µM

Question: What about the Ki [18] of the same compound?
Answer: < 1 µM

Question: What about the Ki [7] of the same compound?
Answer: < 1 µM

Question: And the remaining at 1 h [19]?
Answer: 0.07%

Question: And the Ki [20]?
Answer: < 1 µM

Question: For `CC(C)[C@@H](CN1CC[C@@](C)(c2cccc(O)c2)[C@@H](C)C1)NC(=O)[C@@H](N)Cc1ccc(O)cc1`, which Ke [21] is on record?
Answer: 452 nM

Question: With `Cc1ccc(S(=O)(=O)NCc2ccc(C(=O)NCCCN(Cc3ccccc3)C(C)C)cc2)cc1` as the compound, how does the IC50 [14] read?
Answer: > 32 µM

Question: What about the IC50 [1] of the same compound?
Answer: > 20 µM

Question: What about the IC50 [2] of the same compound?
Answer: > 32 µM

Question: And the IC50 [3]?
Answer: > 32 µM

Question: Which Ratio Ki [22] does the source give for `CC[C@H](C)[C@@H]1NC(=O)[C@H](CCCNC(=N)N)NC(=O)[C@@H](NC(=O)[C@H](Cc2ccccc2)NC(=O)CNC(=O)CNC(=O)[C@H](Cc2ccc(O)cc2)NCc2ccccc2)CC(=O)NC[C@@H](C(=O)N[C@@H](CCCNC(=N)N)C(=O)N2CCC[C@H]2C(=O)N[C@@H](CCCCN)C(N)=O)NC1=O` here?
Answer: 194

Question: What about the Ratio Ki [23] of the same compound?
Answer: > 330

Question: Which results are given for `CC1CN(CCCc2ccccc2)C2C[C@H](N)CC1(c1cccc(O)c1)C2` (stereo partly specified)?
Answer: Ke [24]: 10.1 nM; EC50 [12]: > 5 µM; EC50 [8]: 19.5 µM; EC50 [13]: 7.5 µM

Question: Which Ki [25] does the source give for `CC(C)[C@@H](CN1CC[C@@](C)(c2cccc(O)c2)[C@@H](C)C1)NC(=O)[C@H]1Cc2ccc(O)cc2CN1` [JDTIC] here?
Answer: 0.00216 µM

Question: And the Ki [26]?
Answer: > 0.3 µM

Question: What does the source list for `CC(C)[C@@H](CN1CC[C@@](C)(c2cccc(O)c2)[C@@H](C)C1)NC(=O)[C@H](N)Cc1ccc(O)cc1`?
Answer: Ke [27]: 12 nM; Ke [21]: 334 nM; Ke [28]: 44.6 nM

Question: For `Cc1ccc(S(=O)(=O)NCc2ccc(C(=O)NCCN(Cc3ccc(Br)cc3)C(C)C)cc2)cc1`, which IC50 [14] is on record?
Answer: > 32 µM

Question: What about the IC50 [3] of the same compound?
Answer: > 32 µM

Question: For `CC(C)[C@@H](CN1CC[C@@](C)(c2cccc(O)c2)[C@@H](C)C1)NC(=O)CCc1ccc(O)cc1`, which Ke [21] is on record?
Answer: 450 nM
